# Results published in patent US8293917B2, “Pyrazole compounds as CCR1 antagonists” (Boehringer Ingelheim International GmbH, priority 2008, dated 2012).
# Several values for one entry are separate records, joined by “and”; a condition that tells them apart may be missing. Equal values may be shown once.
# Molecular target: T1, CCR1 (Homo sapiens, UniProt P32246)
# T1 construct: host or cells: non-adherent cells
# T1 sequence (P32246 1-355): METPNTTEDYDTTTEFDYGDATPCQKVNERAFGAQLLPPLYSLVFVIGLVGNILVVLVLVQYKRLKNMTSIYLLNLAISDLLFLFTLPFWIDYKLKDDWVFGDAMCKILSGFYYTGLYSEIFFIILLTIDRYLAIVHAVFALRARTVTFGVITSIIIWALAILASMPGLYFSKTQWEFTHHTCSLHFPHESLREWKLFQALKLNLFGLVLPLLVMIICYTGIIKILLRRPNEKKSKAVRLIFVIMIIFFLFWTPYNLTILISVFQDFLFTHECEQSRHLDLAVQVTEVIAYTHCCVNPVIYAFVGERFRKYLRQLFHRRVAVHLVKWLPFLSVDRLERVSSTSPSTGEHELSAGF
# Assay: functional cellular assay measuring calcium flux in response to MIP1α in CCR1-transfected cells (Method A or Method B)
# Assay type: cell-based
# Settings: cells stably expressing recombinant CCR1 and G-alpha-16; MIP-1alpha added at EC80; method (A: FLIPR TETRA, B: FDSS6000) not stated per compound
# Experimental: Compounds are assessed for the ability to block the interaction of CCR1 and its ligands in a functional cellular assay measuring calcium flux in response to MIP1α in CCR1-transfected cells.
# Method A: Non-adherent cells purchased from Chemicon Corporation (HTS005C), stably expressing recombinant CCR1 and G-alpha-16 are grown in RPMI 1640 medium (Mediatech 10-080-CM) supplemented with 10% heat-inactivated FBS, 0.4 mg/mL Geneticin and penicillin/streptomycin. On the day of the assay, the cells are transferred to a beaker and dye-loaded in bulk using a Fluo-4 NW Calcium Assay Kit with probenecid (Invitrogen F36205) at 0.8E6 cells/mL for 1 hour at room temperature. After 1 hour, they are seeded in a 384-well tissue culture-treated plate at a density of 20,000 cells/well. Appropriately diluted test compound is added to the well to achieve a top concentration of 3,000 nM (diluted 3-fold with 10 doses total). The final concentration of DMSO is 1%. The buffer is HBSS (Invitrogen 14025) with 20 mM HEPES at pH 7.4. The cells are allowed to incubate 1 hour in the dark at room temperature. The plates are transferred to the FLIPR TETRA where MIP-1alpha in 1% BSA is added at the EC80 final concentration. Wells +/−MIP-1alpha containing diluted DMSO instead of compound serve as the controls. Intracellular calcium flux is recorded on the FLIPR TETRA, using excitation at 470/495 nm and emission at 515/575 nm. Data are analyzed using Activity Base software.
# Method B: Non-adherent cells purchased from Chemicon Corporation (HTS005C), stably expressing recombinant CCR1 and G-alpha-16 are grown in RPMI 1640 medium (Mediatech 10-080-CM) supplemented with 10% FBS, 0.4 mg/mL Geneticin and penicillin/streptomycin. On the day of the assay, the cells are loaded with Calcium 4 dye (Molecular Devices R7448) with Probenecid (Invitrogen P346400) at 8E5 cells/mL for 1 hour at room temperature. After 1 hour, they are seeded in a 384-well tissue culture-treated plate at a density of 20,000 cells/well. Appropriately diluted test compound is added to the well to achieve a top concentration of 3,000 nM (diluted 4-fold with 10 doses total). The final concentration of DMSO is 1%. The buffer is HBSS (Invitrogen 14025) with 20 mM HEPES at pH 7.4. The cells incubate 30 minutes at 37 C and then 30 minutes at room temperature. The plates are transferred to the HAMAMATSU FDSS6000 where MIP-1alpha in 1% BSA is added at the EC80 final concentration. All plates must be read within 4 hours of the start of dye-loading. Wells +/−MIP-1alpha containing diluted DMSO instead of compound serve as the controls. Data are analyzed using Activity Base software.
row,SMILES,IC50
1,CCCC(NC(=O)c1cnn(-c2ccc(Cl)cc2)c1C)c1cncc(S(=O)(=O)NC)c1 (stereo not drawn) [1-(4-Chloro-phenyl)-5-methyl-1H-pyrazole-4-carboxylic acid [1-(5-methylsulfamoyl-pyridin-3-yl)-butyl]-amide],4.1 nM
2,CCCC(NC(=O)c1cnn(-c2ccc(Cl)cc2)c1C)c1cncc(S(N)(=O)=O)c1 (stereo not drawn) [1-(4-Chloro-phenyl)-5-methyl-1H-pyrazole-4-carboxylic acid [1-(5-sulfamoyl-pyridin-3-yl)-butyl]-amide],31 nM and 35 nM
3,CCCC(NC(=O)c1cnn(-c2ccc(Cl)cc2)c1C)c1ccc(S(=O)(=O)C2CC2)nc1 (stereo not drawn) [1-(4-Chloro-phenyl)-5-methyl-1H-pyrazole-4-carboxylic acid [1-(6-cyclopropanesulfonyl-pyridin-3-yl)-butyl]-amide],53 nM
4,CCCC(NC(=O)c1cnn(-c2ccc(Cl)cc2)c1C)c1ccc(S(=O)(=O)N(C)C)nc1 (stereo not drawn) [1-(4-Chloro-phenyl)-5-methyl-1H-pyrazole-4-carboxylic acid [1-(6-dimethylsulfamoyl-pyridin-3-yl)-butyl]-amide],12 nM
5,CCCC(NC(=O)c1cnn(-c2ccc(Cl)cc2)c1C)c1ccc(S(=O)(=O)CC)nc1 (stereo not drawn) [1-(4-Chloro-phenyl)-5-methyl-1H-pyrazole-4-carboxylic acid [1-(6-ethanesulfonyl-pyridin-3-yl)-butyl]-amide],60 nM
6,CCCC(NC(=O)c1cnn(-c2ccc(Cl)cc2)c1C)c1ccc(S(=O)(=O)NC)nc1 (stereo not drawn) [1-(4-Chloro-phenyl)-5-methyl-1H-pyrazole-4-carboxylic acid [1-(6-methylsulfamoyl-pyridin-3-yl)-butyl]-amide],6.3 nM
7,CC[C@H](NC(=O)c1cnn(-c2ccc(Cl)cc2)c1C)c1ccnc(S(C)(=O)=O)c1 [1-(4-Chloro-phenyl)-5-methyl-1H-pyrazole-4-carboxylic acid [(S)-1-(2-methanesulfonyl-pyridin-4-yl)-propyl]-amide],29 nM
8,CC[C@H](NC(=O)c1cnn(-c2ccc(Cl)cc2)c1C)c1cnc(S(C)(=O)=O)s1 [1-(4-Chloro-phenyl)-5-methyl-1H-pyrazole-4-carboxylic acid [(S)-1-(2-methanesulfonyl-thiazol-5-yl)-propyl]-amide],57 nM
9,CC[C@H](NC(=O)c1cnn(-c2ccc(Cl)cc2)c1C)c1ccnc(S(=O)(=O)NC)c1 [1-(4-Chloro-phenyl)-5-methyl-1H-pyrazole-4-carboxylic acid [(S)-1-(2-methylsulfamoyl-pyridin-4-yl)-propyl]-amide],19 nM

# The next lines start with the values.
row,IC50,SMILES
1,28 nM,CCC[C@H](NC(=O)c1cnn(-c2ccc(Cl)cc2)c1C)c1cccc(Br)c1 [1-(4-Chloro-phenyl)-5-methyl-1H-pyrazole-4-carboxylic acid [(S)-1-(3-bromo-phenyl)-butyl]-amide]
2,30 nM,C=CCCC[C@H](NC(=O)c1cnn(-c2ccc(Cl)cc2)c1C)c1cccc(C(F)(F)F)c1 [1-(4-Chloro-phenyl)-5-methyl-1H-pyrazole-4-carboxylic acid [(S)-1-(3-trifluoromethyl-phenyl)-hex-5-enyl]-amide]
3,10 nM,CCC[C@H](NC(=O)c1cnn(-c2ccc(Cl)cc2)c1C)c1ccc(F)c(C(F)(F)F)c1 [1-(4-Chloro-phenyl)-5-methyl-1H-pyrazole-4-carboxylic acid [(S)-1-(4-fluoro-3-trifluoromethyl-phenyl)-butyl]-amide]
4,13 nM,CC[C@H](NC(=O)c1cnn(-c2ccc(Cl)cc2)c1C)c1ccc(F)c(C(F)(F)F)c1 [1-(4-Chloro-phenyl)-5-methyl-1H-pyrazole-4-carboxylic acid [(S)-1-(4-fluoro-3-trifluoromethyl-phenyl)-propyl]-amide]
5,20 nM,CC[C@H](NC(=O)c1cnn(-c2ccc(Cl)cc2)c1C)c1cncc(Br)c1 [1-(4-Chloro-phenyl)-5-methyl-1H-pyrazole-4-carboxylic acid [(S)-1-(5-bromo-pyridin-3-yl)-propyl]-amide]
6,72 nM,CCCC(NC(=O)c1cnn(-c2ccc(Cl)cc2)c1C)c1cncc(S(=O)(=O)C(C)C)c1 (stereo not drawn) [1-(4-Chloro-phenyl)-5-methyl-1H-pyrazole-4-carboxylic acid {1-[5-(propane-2-sulfonyl)-pyridin-3-yl]-butyl}-amide]
7,97 nM,CCCC(NC(=O)c1cnn(-c2ccc(Cl)cc2)c1C)c1ccc(S(=O)(=O)NCCO)nc1 (stereo not drawn) [1-(4-Chloro-phenyl)-5-methyl-1H-pyrazole-4-carboxylic acid {1-[6-(2-hydroxy-ethylsulfamoyl)-pyridin-3-yl]-butyl}-amide]
8,86 nM,CCCC(NC(=O)c1cnn(-c2ccc(Cl)cc2)c1C)c1ccc(S(=O)(=O)CCCO)nc1 (stereo not drawn) [1-(4-Chloro-phenyl)-5-methyl-1H-pyrazole-4-carboxylic acid {1-[6-(3-hydroxy-propane-1-sulfonyl)-pyridin-3-yl]-butyl}-amide]
9,41 nM,CCCC(NC(=O)c1cnn(-c2ccc(Cl)cc2)c1C)c1ccc(S(=O)(=O)NC2CCOCC2)nc1 (stereo not drawn) [1-(4-Chloro-phenyl)-5-methyl-1H-pyrazole-4-carboxylic acid {1-[6-(tetrahydro-pyran-4-ylsulfamoyl)-pyridin-3-yl]-butyl}-amide]
10,98 nM,CCC[C@H](NC(=O)c1cnn(-c2ccc(Cl)cc2)c1CNC)c1cccc(C(F)(F)F)c1 [1-(4-Chloro-phenyl)-5-methylaminomethyl-1H-pyrazole-4-carboxylic acid [(S)-1-(3-trifluoromethyl-phenyl)-butyl]-amide]
11,80 nM,CCCC(NC(=O)c1cnn(-c2ccc(Cl)cc2)c1C)c1ccnc(S(=O)(=O)CCC(=O)OC)c1 (stereo not drawn) [3-[4-(1-{[1-(4-Chloro-phenyl)-5-methyl-1H-pyrazole-4-carbonyl]-amino}-butyl)-pyridine-2-sulfonyl]-propionic acid methyl ester]
12,12 nM,CCC[C@H](NC(=O)c1cnn(-c2ccc(Cl)cc2)c1CN)c1cccc(C(F)(F)F)c1 [5-Aminomethyl-1-(4-chloro-phenyl)-1H-pyrazole-4-carboxylic acid [(S)-1-(3-trifluoromethyl-phenyl)-butyl]-amide]
